# According to patent US20080254983A1, “Herbicide Composition” (NUFARM AUSTRALIA LIMITED, priority 2005, published 2008):
# Tested on: Annual Ryegrass (LOLRI)
# Test: Field trials throughout Australia, annual ryegrass (LOLRI) counts
# Assay type: in vivo
# Details: for % control: from mean vs untreated control; for Mean Plants/m2: mean of the seven trials
# Procedure: A series of field trials were conducted throughout Australia to assess the performance of Example 5 composition (400 g/L trifluralin+117 g/L cinmethylin+UAN compatibiliser) versus the performance of either trifluralin or cinmethylin applied as standalone treatments.
# All trials were sown under a knifepoint/reduced tillage seeding systems with trial design and management reflecting common district and grower practice. Rates of herbicide application were designed to allow comparison of the co-mixture and solvency package against the relative merits of either active ingredient applied alone in their currently available commercial formulation package (see table below).
# Products were applied prior to sowing and were applied in water with industry accepted application equipment and spray nozzles.
smiles,measurement,setting,value
Cc1ccccc1CO[C@@H]1C[C@@]2(C(C)C)CC[C@]1(C)O2 (racemic) [Cinmethylin],LOLRI Plants/m2,"100 gai/ha, Vic Lentils 81-DAT",18 Plants/m2
same,LOLRI Plants/m2,"100 gai/ha, Vic Lentils H02 51-DAT",15 Plants/m2
same,LOLRI Plants/m2,"100 gai/ha, Vic Wheat 49-DAT",69 Plants/m2
same,LOLRI Plants/m2,"100 gai/ha, Vic Wheat H03 79-DAT",136 Plants/m2
same,LOLRI Plants/m2,"100 gai/ha, WA Canola W06-197 27-DAT",419 Plants/m2
same,LOLRI Plants/m2,"100 gai/ha, WA Lupins W06-200 19-DAT",503 Plants/m2
same,LOLRI Plants/m2,"100 gai/ha, WA Wheat W06-196 27-DAT",300 Plants/m2
same,% control,100 gai/ha,46%
same,Mean Plants/m2,100 gai/ha,208 Plants/m2
same,LOLRI Plants/m2,"200 gai/ha, Vic Lentils 81-DAT",10 Plants/m2
same,LOLRI Plants/m2,"200 gai/ha, Vic Lentils H02 51-DAT",8 Plants/m2
same,LOLRI Plants/m2,"200 gai/ha, Vic Wheat 49-DAT",67 Plants/m2
same,LOLRI Plants/m2,"200 gai/ha, Vic Wheat H03 79-DAT",78 Plants/m2
same,LOLRI Plants/m2,"200 gai/ha, WA Canola W06-197 27-DAT",307 Plants/m2
same,LOLRI Plants/m2,"200 gai/ha, WA Lupins W06-200 19-DAT",235 Plants/m2
same,LOLRI Plants/m2,"200 gai/ha, WA Wheat W06-196 27-DAT",264 Plants/m2
same,% control,200 gai/ha,64%
same,Mean Plants/m2,200 gai/ha,138 Plants/m2
same,LOLRI Plants/m2,"400 gai/ha, Vic Lentils 81-DAT",14 Plants/m2
same,LOLRI Plants/m2,"400 gai/ha, Vic Lentils H02 51-DAT",10 Plants/m2
same,LOLRI Plants/m2,"400 gai/ha, Vic Wheat 49-DAT",22 Plants/m2
same,LOLRI Plants/m2,"400 gai/ha, Vic Wheat H03 79-DAT",19 Plants/m2
same,LOLRI Plants/m2,"400 gai/ha, WA Canola W06-197 27-DAT",324 Plants/m2
same,LOLRI Plants/m2,"400 gai/ha, WA Lupins W06-200 19-DAT",124 Plants/m2
same,LOLRI Plants/m2,"400 gai/ha, WA Wheat W06-196 27-DAT",229 Plants/m2
same,% control,400 gai/ha,73%
same,Mean Plants/m2,400 gai/ha,106 Plants/m2
"CCCN(CCC)c1c([N+](=O)[O-])cc(C(F)(F)F)cc1[N+](=O)[O-] [Trifluralin, trifluralin]",LOLRI Plants/m2,"720 gai/ha, Vic Lentils 81-DAT",26 Plants/m2
same,LOLRI Plants/m2,"720 gai/ha, Vic Lentils H02 51-DAT",21 Plants/m2
same,LOLRI Plants/m2,"720 gai/ha, Vic Wheat 49-DAT",105 Plants/m2
same,LOLRI Plants/m2,"720 gai/ha, Vic Wheat H03 79-DAT",168 Plants/m2
same,LOLRI Plants/m2,"720 gai/ha, WA Canola W06-197 27-DAT",264 Plants/m2
same,LOLRI Plants/m2,"720 gai/ha, WA Lupins W06-200 19-DAT",224 Plants/m2
same,LOLRI Plants/m2,"720 gai/ha, WA Wheat W06-196 27-DAT",191 Plants/m2
same,% control,720 gai/ha,63%
same,Mean Plants/m2,720 gai/ha,143 Plants/m2
same,LOLRI Plants/m2,"960 gai/ha, Vic Lentils 81-DAT",22 Plants/m2
same,LOLRI Plants/m2,"960 gai/ha, Vic Lentils H02 51-DAT",19 Plants/m2
same,LOLRI Plants/m2,"960 gai/ha, Vic Wheat 49-DAT",10 Plants/m2
same,LOLRI Plants/m2,"960 gai/ha, Vic Wheat H03 79-DAT",22 Plants/m2
same,LOLRI Plants/m2,"960 gai/ha, WA Canola W06-197 27-DAT",208 Plants/m2
same,LOLRI Plants/m2,"960 gai/ha, WA Lupins W06-200 19-DAT",169 Plants/m2
same,LOLRI Plants/m2,"960 gai/ha, WA Wheat W06-196 27-DAT",207 Plants/m2
same,% control,960 gai/ha,76%
same,Mean Plants/m2,960 gai/ha,94 Plants/m2
same,LOLRI Plants/m2,"1440 gai/ha, Vic Lentils 81-DAT",23 Plants/m2
same,LOLRI Plants/m2,"1440 gai/ha, Vic Lentils H02 51-DAT",14 Plants/m2
same,LOLRI Plants/m2,"1440 gai/ha, Vic Wheat 49-DAT",29 Plants/m2
same,LOLRI Plants/m2,"1440 gai/ha, Vic Wheat H03 79-DAT",33 Plants/m2
same,LOLRI Plants/m2,"1440 gai/ha, WA Canola W06-197 27-DAT",156 Plants/m2
same,LOLRI Plants/m2,"1440 gai/ha, WA Lupins W06-200 19-DAT",184 Plants/m2
same,LOLRI Plants/m2,"1440 gai/ha, WA Wheat W06-196 27-DAT",135 Plants/m2
same,% control,1440 gai/ha,79%
same,Mean Plants/m2,1440 gai/ha,82 Plants/m2
